Measurements as given in PubChem BioAssay AID1845219 (Molecular Pharmacology Branch, DTP, NCI, 2023).

Tested on: SYO-1 tumor spheroids, viability % test/control
Assay: Anticancer human tumor SYO-1 cell line growth inhibition;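 also: spheroids exposed to agents for 7 days before viability read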;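 as to viability, T/C: 100% = DMSO vehicle control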
Conditions: spheroids with HUVEC and MSC; for IC50: curve of first compound; for viability, T/C: stronger effect = lower value
Method in brief: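 Complex tumor spheroids combined malignant cells with endothelial cells and mesenchymal stem cells. DNA-damaging drugs and DNA repair inhibitors were tested alone and in combination, at half-log dilutions down from clinical Cmax (top 10 microM if Cmax unknown), 0.25% DMSO final.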

`O=C(c1cc(Cc2n[nH]c(=O)c3ccccc23)ccc1F)N1CCN(C(=O)C2CC2)CC1` + COc1cc2c(cc1O)CCNC21CSC2c3c(OC(C)=O)c(C)c4c(c3C(COC1=O)N1C(O)C3Cc5cc(C)c(OC)c(O)c5C(C21)N3C)OCO4 gave an IC50 (second compound 30 pM) of 1590 nM, an IC50 (second compound 94.9 pM) of 575 nM and an IC50 (second compound 0.0003 µM) of less than 94.9 nM. It also gave an IC50 (second compound 0.000949 µM) of less than 94.9 nM, an IC50 (second compound 0.003 µM) of less than 94.9 nM and a viability, T/C (second compound 30 pM, first compound 0.0949 µM) of 101%. The viability, T/C (second compound 30 pM, first compound 0.3 µM) was 92.3%, the viability, T/C (second compound 30 pM, first compound 0.949 µM) was 84.7% and the viability, T/C (second compound 30 pM, first compound 3 µM) was 7.77%. The viability, T/C (second compound 30 pM, first compound 9.49 µM) was 2.16%, the viability, T/C (second compound 30 pM, first compound 30 µM) was 1.89% and the viability, T/C (second compound 94.9 pM, first compound 0.0949 µM) was 85.9%. The viability, T/C (second compound 94.9 pM, first compound 0.3 µM) was 79.7%, the viability, T/C (second compound 94.9 pM, first compound 0.949 µM) was 27.2% and the viability, T/C (second compound 94.9 pM, first compound 3 µM) was 4.14%. The viability, T/C (second compound 94.9 pM, first compound 9.49 µM) was 1.87%, the viability, T/C (second compound 94.9 pM, first compound 30 µM) was 1.22% and the viability, T/C (second compound 0.0003 µM, first compound 0.0949 µM) was 6.93%. It also gave a viability, T/C (second compound 0.0003 µM, first compound 0.3 µM) of 3.52%, a viability, T/C (second compound 0.0003 µM, first compound 0.949 µM) of 2.62% and a viability, T/C (second compound 0.0003 µM, first compound 3 µM) of 1.83%. It also gave a viability, T/C (second compound 0.0003 µM, first compound 9.49 µM) of 1.18%, a viability, T/C (second compound 0.0003 µM, first compound 30 µM) of 1.45% and a viability, T/C (second compound 0.000949 µM, first compound 0.0949 µM) of 0.91%. For the same compound, the viability, T/C (second compound 0.000949 µM, first compound 0.3 µM) was 0.86%, the viability, T/C (second compound 0.000949 µM, first compound 0.949 µM) was 0.95% and the viability, T/C (second compound 0.000949 µM, first compound 3 µM) was 0.68%. For the same compound, the viability, T/C (second compound 0.000949 µM, first compound 9.49 µM) was 0.61%, the viability, T/C (second compound 0.000949 µM, first compound 30 µM) was 0.39% and the viability, T/C (second compound 0.003 µM, first compound 0.0949 µM) was 3.53%. For the same compound, the viability, T/C (second compound 0.003 µM, first compound 0.3 µM) was 0.25%, the viability, T/C (second compound 0.003 µM, first compound 0.949 µM) was 0.21% and the viability, T/C (second compound 0.003 µM, first compound 3 µM) was 0.22%. The viability, T/C (second compound 0.003 µM, first compound 9.49 µM) was 0.24% and the viability, T/C (second compound 0.003 µM, first compound 30 µM) was 0.31%.
With `COc1cc(C)[nH]c(=O)c1CN1CCc2c(Cl)cc(C(OC)C3COC3)c(Cl)c2C1=O` (stereo not given) + COc1cc2c(cc1O)CCNC21CSC2c3c(OC(C)=O)c(C)c4c(c3C(COC1=O)N1C(O)C3Cc5cc(C)c(OC)c(O)c5C(C21)N3C)OCO4 the IC50 (second compound 30 pM) was 1490 nM, the IC50 (second compound 94.9 pM) was 198 nM and the IC50 (second compound 0.0003 µM) was less than 31.6 nM. The IC50 (second compound 0.000949 µM) was less than 31.6 nM, the IC50 (second compound 0.003 µM) was less than 31.6 nM and the viability, T/C (second compound 30 pM, first compound 0.0316 µM) was 104%. For the same compound, the viability, T/C (second compound 30 pM, first compound 0.1 µM) was 104%, the viability, T/C (second compound 30 pM, first compound 0.316 µM) was 79.3% and the viability, T/C (second compound 30 pM, first compound 1 µM) was 55.3%. It also gave a viability, T/C (second compound 30 pM, first compound 3.16 µM) of 42.5%, a viability, T/C (second compound 30 pM, first compound 10 µM) of 40.5% and a viability, T/C (second compound 94.9 pM, first compound 0.0316 µM) of 94%. The viability, T/C (second compound 94.9 pM, first compound 0.1 µM) was 65.8%, the viability, T/C (second compound 94.9 pM, first compound 0.316 µM) was 39.9% and the viability, T/C (second compound 94.9 pM, first compound 1 µM) was 20.9%. It also gave a viability, T/C (second compound 94.9 pM, first compound 3.16 µM) of 16.5%, a viability, T/C (second compound 94.9 pM, first compound 10 µM) of 11.5% and a viability, T/C (second compound 0.0003 µM, first compound 0.0316 µM) of 6.74%. The viability, T/C (second compound 0.0003 µM, first compound 0.1 µM) was 4%, the viability, T/C (second compound 0.0003 µM, first compound 0.316 µM) was 3.76% and the viability, T/C (second compound 0.0003 µM, first compound 1 µM) was 3.14%. It also gave a viability, T/C (second compound 0.0003 µM, first compound 3.16 µM) of 2.73%, a viability, T/C (second compound 0.0003 µM, first compound 10 µM) of 2.74% and a viability, T/C (second compound 0.000949 µM, first compound 0.0316 µM) of 0.89%. It also gave a viability, T/C (second compound 0.000949 µM, first compound 0.1 µM) of 0.96%, a viability, T/C (second compound 0.000949 µM, first compound 0.316 µM) of 0.72% and a viability, T/C (second compound 0.000949 µM, first compound 1 µM) of 0.67%. It also gave a viability, T/C (second compound 0.000949 µM, first compound 3.16 µM) of 0.86%, a viability, T/C (second compound 0.000949 µM, first compound 10 µM) of 0.76% and a viability, T/C (second compound 0.003 µM, first compound 0.0316 µM) of 0.11%. For the same compound, the viability, T/C (second compound 0.003 µM, first compound 0.1 µM) was 0.09%, the viability, T/C (second compound 0.003 µM, first compound 0.316 µM) was 0.1% and the viability, T/C (second compound 0.003 µM, first compound 1 µM) was 0.11%. It also gave a viability, T/C (second compound 0.003 µM, first compound 3.16 µM) of 0.11% and a viability, T/C (second compound 0.003 µM, first compound 10 µM) of 0.17%.
